Reference: US8197794B2, “Core 2 GlcNAc-T inhibitors” (MS Therapeutics Limited, priority 2003, dated 2012)
Read-outs that look alike come from different tables or passages of the source.

What was measured:
[1] = biological target: core 2 GlcNAc-T (Rattus norvegicus, UniProt Q64165); assay: Cell free assay of core 2 GlcNAc-T on heart lysates of BB rats; assay type: biochemical
Procedure: (§1) FIG. 17a and FIG. 17b are graphs illustrating the effect of purified trigoneoside IVa, glycoside F, and shatavarin IV on Core 2 GlcNAc-T activity in cell free (FIG. 17a) and cell based (FIG. 17b) assays. In cell free assays heart lysate from BB rats were incubated in the presence, and absence of 20 ng/ml of each compound. After 1 h incubation at 37° C., the activity of core 2 GlcNAc-T was measured, and expressed as pmoles/h/mg protein. The results are the mean of 3-5 separate experiments. In cell based assays human leukocytes (U937 cells) were exposed to 8 pg/ml human recombinant TNF-alpha in the presence and absence of 20 ng/ml of the test compound. After 24 h incubation, the activity of core 2 GlcNAc-T was measured, and expressed as pmoles/h/mg protein.
For Glucose induction of Core 2 GlcNAc-T leukocytes (U937 cells) are exposed to normal glucose (5.8 mM) or high glucose (15 mM) for 24 hours at 37° C. After incubation, the cells maybe lysed and frozen at −20° C. until used for the measurement of core 2 GlcNAc-T. or used immediately. For TNF-α induction of core 2 GlcNAc-T, Human leukocytes(U937 cells) are exposed to human recombinant TNF-alpha (8 pg/ml) in the presence and absence of test compounds After 24 h incubation, the activity of core 2 GlcNAc-T was measured, and expressed as pmoles/h/mg protein. […]
(§2) GlcNAc-T is measured, and expressed as pmoles/h/mg protein.
To measure core 2 GlcNAc-T activity, leukocytes were washed in PES, frozen and lysed in 0.9% Triton X-100 at 0° C. The activity of core 2 GlcNAc-T was measured as described previously (Chibber, Diabetes 49, 1724-1730 (2000)). […] The radioactivity of the samples was counted in a liquid scintillation β-counter (LKB-Wallac, London, UK). Endogenous activity of core 2 GlcNAc-T was measured in the absence of the added acceptor. The specific activity was expressed as pmoles/h/mg of cell protein. In each case, the protein concentration was determined with BioRad protein assay (BioRad, Hertfordshire, UK).

[2] = biological target: T1, Core 2 GlcNAc-T (Homo sapiens, UniProt Q02742); assay: Cell based assay of core 2 GlcNAc-T activity in human leukocytes (U937 cells)
T1 sequence (Q02742 1-428): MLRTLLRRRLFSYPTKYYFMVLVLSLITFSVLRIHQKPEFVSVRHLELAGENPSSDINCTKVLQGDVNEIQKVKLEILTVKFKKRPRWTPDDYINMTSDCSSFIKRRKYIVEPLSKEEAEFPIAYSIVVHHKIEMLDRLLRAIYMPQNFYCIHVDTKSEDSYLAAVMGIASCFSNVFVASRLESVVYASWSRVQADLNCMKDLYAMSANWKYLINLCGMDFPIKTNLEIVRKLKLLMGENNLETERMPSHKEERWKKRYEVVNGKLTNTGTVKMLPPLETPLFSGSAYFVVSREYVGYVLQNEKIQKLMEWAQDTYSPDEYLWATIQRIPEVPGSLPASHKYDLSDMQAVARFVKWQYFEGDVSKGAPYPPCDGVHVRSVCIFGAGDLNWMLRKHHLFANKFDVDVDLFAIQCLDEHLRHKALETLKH
Procedure: as §1
(§3) For Glucose induction of Core 2 GlcNAc-T leukocytes (U937 cells) are exposed to normal glucose (5.8 mM) or high glucose (15 mM) for 24 hours at 37° C. After incubation, the cells maybe lysed and frozen at −20° C. until used for the measurement of core 2 GlcNAc-T. or used immediately. For TNF-α induction of core 2 GlcNAc-T, Human leukocytes(U937 cells) are exposed to human recombinant TNF-alpha (8 pg/ml) in the presence and absence of test compounds After 24 h incubation, the activity of core 2 GlcNAc-T was measured, and expressed as pmoles/h/mg protein. For cell free assay of core 2 GlcNAc-T heart lysates from either from TNF-alpha over expressing transgenic mice (female, B6.5JL-Tg (TNF) supplied by Taconic-M+B, Bomholtveg 10, 8680 Ry, Denmark) or from BB rats (Festing 1979) are exposed to various concentrations of test compound for 1 h at 37° C. Activity of core 2
(§4) To measure core 2 GlcNAc-T activity, leukocytes were washed in PES, frozen and lysed in 0.9% Triton X-100 at 0° C. The activity of core 2 GlcNAc-T was measured as described previously (Chibber, Diabetes 49, 1724-1730 (2000)). Briefly, the reaction was performed in a reaction mixture containing 50 mM 2(N-morpholino)ethanesulfonic acid (MES, Sigma, Dorset, UK), pH 7.0, 1 mM UDP-6 [′H]-N-acetylglucosamine (16,000 dpm/nmol, NEN Life Science Products, Hounslow, UK), 0.1 M GlcNAc (Sigma, Dorset, Okla.), 1 mM Galβ1-3GalNAcα-p-nitrophenol (Sigma, Dorset, UK) as substrate, and […] of cell lysate (100-200 μg protein) for a final volume of […]. After incubating the mixture for 1 hour at 37° C., the reaction was terminated with 1 ml of ice-cold distilled water and processed on a C18 Sep-Pak column (Waters-Millipore, Watford, UK). After washing the column with 20 ml of distilled water, the product was eluted with 5 ml of methanol. The radioactivity of the samples was counted in a liquid scintillation β-counter (LKB-Wallac, London, UK). Endogenous activity of core 2 GlcNAc-T was measured in the absence of the added acceptor. The specific activity was expressed as pmoles/h/mg of cell protein. In each case, the protein concentration was determined with BioRad protein assay (BioRad, Hertfordshire, UK).

[3] = biological target: T2, core 2 GlcNAc-T (Mus musculus, UniProt Q09324); assay: Cell free assay of core 2 GlcNAc-T on heart lysates of TNF-α mice; assay type: biochemical
T2 construct: heart lysates from either from TNF-alpha over expressing transgenic mice; tissue Taconic-M+B (mice) B6.5JL-Tg (TNF); host or cells: heart lysate of TNF-alpha over-expressing transgenic mice
T2 sequence (Q09324 1-428): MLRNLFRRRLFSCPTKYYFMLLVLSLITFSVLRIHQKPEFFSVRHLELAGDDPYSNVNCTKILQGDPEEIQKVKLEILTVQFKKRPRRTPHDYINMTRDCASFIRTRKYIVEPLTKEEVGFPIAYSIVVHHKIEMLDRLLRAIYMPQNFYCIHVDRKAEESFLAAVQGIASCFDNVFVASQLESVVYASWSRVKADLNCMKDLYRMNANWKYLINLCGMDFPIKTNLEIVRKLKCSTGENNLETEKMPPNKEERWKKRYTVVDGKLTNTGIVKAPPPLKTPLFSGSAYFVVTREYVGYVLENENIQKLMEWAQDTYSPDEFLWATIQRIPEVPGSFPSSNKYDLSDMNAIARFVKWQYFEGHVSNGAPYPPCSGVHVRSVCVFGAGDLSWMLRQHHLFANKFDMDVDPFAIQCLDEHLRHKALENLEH
Procedure: as §3, §2, §4

[4] = biological target: T1, Core 2 GlcNAc-T; assay: Core 2 GlcNAc-T inhibition, assay system not given; assay type: biochemical
Procedure: as §4

[5] = read-out: Approximate Ic50 values, Cell based assay
[6] = heart lysates of TNF-α mice, read-out: Approximate Ic50 values, Cell free assay

Sequence of core 2 GlcNAc-T (Rattus norvegicus, UniProt Q64165) (Q64165 entry or part of it): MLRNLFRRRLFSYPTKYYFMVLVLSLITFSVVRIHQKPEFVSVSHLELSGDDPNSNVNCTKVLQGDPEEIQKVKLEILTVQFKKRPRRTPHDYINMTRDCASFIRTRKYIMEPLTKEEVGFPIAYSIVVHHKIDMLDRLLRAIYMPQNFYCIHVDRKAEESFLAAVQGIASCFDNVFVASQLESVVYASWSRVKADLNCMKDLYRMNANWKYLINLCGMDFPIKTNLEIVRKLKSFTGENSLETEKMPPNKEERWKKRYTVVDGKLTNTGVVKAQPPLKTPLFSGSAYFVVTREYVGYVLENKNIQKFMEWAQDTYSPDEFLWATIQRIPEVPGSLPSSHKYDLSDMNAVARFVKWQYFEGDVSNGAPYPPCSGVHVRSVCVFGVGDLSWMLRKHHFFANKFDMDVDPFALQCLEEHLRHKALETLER

IC50 [2, 5] [nM] | IC50 [3, 6] [nM] | Structure (SMILES) | other results
– | – | CC(CCC1(O)OC2CC3C4CC=C5CC(OC6OC(CO)C(OC7OC(CO)C(O)C(O)C7O)C(O)C6OC6OC(C)C(O)C(O)C6O)CCC5(C)C4CCC3(C)C2C1C)COC1OC(CO)C(O)C(O)C1O [Glycoside F, (3β,25R)-26-(β-D-glucopyranosyloxy)-22-hydroxyfurost-5-en-3-yl O-6-deoxy-α-L-mannopyranosyl-(1→2)-O-[β-D-glucopyranosyl-(1→4)]-β-D-glucopyranoside] | inhibition at 0.022 µM ([1]; at 22 nM in BB rat heart lysate): 100%
– | – | C[C@@H]1CC[C@@]2(OC1)O[C@H]1C[C@H]3[C@@H]4CC=C5C[C@@H](O[C@@H]6O[C@H](CO)[C@@H](O[C@@H]7O[C@@H](C)[C@H](O)[C@@H](O)[C@H]7O)[C@H](O)[C@H]6O[C@@H]6O[C@@H](C)[C@H](O)[C@@H](O)[C@H]6O)CC[C@]5(C)[C@H]4CC[C@]3(C)[C@H]1[C@@H]2C [Dioscin, (3(3,25R)-spirost-5-en-3-yl O-6-deoxy-α-L-mannopyranosyl-(1→2)-046-deoxy-α-L-mannopyranosyl-(1→4)]-β-D-glucopyranoside] | IC50 [2]: 75 nM; IC50 [3]: 40 nM
50 | 35 | CC1=C(CC[C@@H](C)CO[C@@H]2O[C@H](CO)[C@@H](O)[C@H](O)[C@H]2O)O[C@H]2C[C@H]3[C@@H]4CC=C5C[C@@H](O[C@@H]6O[C@H](CO)[C@@H](O[C@@H]7O[C@@H](C)[C@H](O)[C@@H](O)[C@H]7O)[C@H](O)[C@H]6O[C@@H]6O[C@@H](C)[C@H](O)[C@@H](O)[C@H]6O)CC[C@]5(C)[C@H]4CC[C@]3(C)[C@@H]12 [Pseudoprotodioscin, (3β,22α,25R)-26-(β-D-glucopyranosyloxy)-furosta-5,20(22)-dien-3-yl O-6-deoxy-α-L-mannopyranosyl (1→2)-046-deoxy-α-L-mannopyranosyl-(1→4)]-[3-D-Glucopyranoside] | –
– | – | C[C@@H](CC[C@@]1(O)O[C@H]2C[C@H]3[C@@H]4CC=C5C[C@@H](O[C@@H]6O[C@H](CO)[C@@H](O[C@@H]7O[C@@H](C)[C@H](O)[C@@H](O)[C@H]7O)[C@H](O)[C@H]6O[C@@H]6O[C@@H](C)[C@H](O)[C@@H](O)[C@H]6O)CC[C@]5(C)[C@H]4CC[C@]3(C)[C@H]2[C@@H]1C)CO[C@@H]1O[C@H](CO)[C@@H](O)[C@H](O)[C@H]1O [Trigonelloside C] | inhibition of Core 2 GlcNAc-T ([4]; at 2.5 nM, preparation 98.2% pure): 69%
0.25 | 3 | C[C@H](CC[C@@]1(O)O[C@H]2C[C@H]3[C@@H]4CC=C5C[C@@H](O[C@@H]6O[C@H](CO)[C@@H](O)[C@H](O[C@@H]7O[C@H](CO)[C@@H](O)[C@H](O)[C@H]7O)[C@H]6O[C@@H]6O[C@@H](C)[C@H](O)[C@@H](O)[C@H]6O)CC[C@]5(C)[C@H]4CC[C@]3(C)[C@H]2[C@@H]1C)CO[C@@H]1O[C@H](CO)[C@@H](O)[C@H](O)[C@H]1O [Protogracillin] | –
0.75 | 1 | C[C@@H](CC[C@@]1(O)O[C@H]2C[C@H]3[C@@H]4CC[C@@H]5C[C@@H](O[C@@H]6O[C@H](CO)[C@@H](O[C@@H]7O[C@H](CO)[C@@H](O)[C@H](O)[C@H]7O)[C@H](O)[C@H]6O[C@@H]6O[C@@H](C)[C@H](O)[C@@H](O)[C@H]6O)CC[C@]5(C)[C@H]4CC[C@]3(C)[C@H]2[C@@H]1C)CO[C@@H]1O[C@H](CO)[C@@H](O)[C@H](O)[C@H]1O [Shatavarin I, (3β,5β,22α,25S)-26-(β-D-glucopyranosyloxy)-22-hydroxyfurostan-3-yl O-6-deoxy-α-L-mannopyranosyl-(1-42)-O-[β-D-glucopyranosyl-(1→4)]-β-D-glucopyranoside] | –
– | – | C[C@H](CC[C@@]1(O)O[C@H]2C[C@H]3[C@@H]4CC=C5C[C@@H](O[C@@H]6O[C@H](CO)[C@@H](O[C@@H]7O[C@@H](C)[C@H](O)[C@@H](O)[C@H]7O)[C@H](O)[C@H]6O[C@@H]6O[C@@H](C)[C@H](O)[C@@H](O)[C@H]6O)CC[C@]5(C)[C@H]4CC[C@]3(C)[C@H]2[C@@H]1C)CO[C@@H]1O[C@H](CO)[C@@H](O)[C@H](O)[C@H]1O [Protodioscin] | IC50 ([1]; heart lysates of BB rats, read-out: Approximate Ic50 values, Cell free assay): 20 nM; IC50 ([1]; system not restated, values as in Table 9 cell free assay, read-out: IC50): ~20 nM; inhibition of Core 2 GlcNAc-T compared to controls ([2]; 20 ng/ml, TNF-α treated Human leukocytes (U937 cells)): approximately 98.5%; activity ([4]; sample prepared from Tribulus terrestris, 97% pure, concentrations of 50 μM): no activity
2.5 | 4.5 | C[C@@H]1CC[C@@]2(OC1)O[C@H]1C[C@H]3[C@@H]4CC=C5C[C@@H](O[C@@H]6O[C@H](CO)[C@@H](O)[C@H](O[C@@H]7O[C@H](CO)[C@@H](O)[C@H](O)[C@H]7O)[C@H]6O[C@@H]6O[C@@H](C)[C@H](O)[C@@H](O)[C@H]6O)CC[C@]5(C)[C@H]4CC[C@]3(C)[C@H]1[C@@H]2C [Gracillin, (3β,25R)-spirost-5-en-3-yl O-6-deoxy-α-L-mannopyranosyl-(1→2)-O-[β-D-glucopyranosyl-(1→3)]-β-D-glucopyranoside] | –
75 | 0.9 | C[C@@H](CCC1(O)O[C@H]2C[C@H]3[C@@H]4CC=C5C[C@@H](O[C@@H]6O[C@H](CO)[C@@H](O[C@@H]7O[C@H](CO)[C@@H](O)[C@H](O)[C@H]7O)[C@H](O)[C@H]6O[C@@H]6O[C@@H](C)[C@H](O)[C@@H](O)[C@H]6O)CC[C@]5(C)[C@H]4CC[C@]3(C)[C@H]2[C@@H]1C)CO[C@@H]1O[C@H](CO)[C@@H](O)[C@H](O)[C@H]1O (stereo partly drawn) [Trigoneoside IVa, (3β,25 S)-26-(β-D-glucopyranosyloxy)-22-hydroxyfurost-5-en-3-yl O-6-deoxy-α-L-mannopyranosyl-(1→2)-O-[β-D-glucopyranosyl-(1→4)]-β-D-glucopyranoside] | IC50 ([3]; in cell free systems, read-out: approximate IC50): 0.25 to 0.9 nM
